Assay results: article PMC4840272 (Neoplasia (New York, N.Y.), 2016)
One block for each molecule: values may come before it.

Tests used:
H1650 cells = test: cells; format: cell-based, human; conditions: Homo sapiens, NCI-H1650, 72 h
PC9 cells = test: cells; format: cell-based, human; conditions: Homo sapiens, PC-9, 72 h
H1975 cells = test: cells; format: cell-based, human; conditions: Homo sapiens, NCI-H1975, 72 h
H1299 cells = test: cells; format: cell-based, human; conditions: Homo sapiens, NCI-H1299, 72 h
PC9/gef B4 cells = test: cells; format: cell-based, human
CL141T cells = test: cells; format: cell-based, human; conditions: Homo sapiens, 72 h
A549 cells = test: cells; format: cell-based, human; conditions: Homo sapiens, A549, 72 h
H460 cells = test: cells; format: cell-based, human; conditions: Homo sapiens, NCI-H460, 72 h
CL97 cells = test: cells; format: cell-based, human; conditions: Homo sapiens, CL97, 72 h
CL100 cells = test: cells; format: cell-based, human; conditions: Homo sapiens, 72 h
CL1-5 cells = test: alamarBlue in vitro cytotoxicity assay; format: cell-based, human; conditions: Homo sapiens, CL1-5, 72 h
H1650-Luc cells = test: orthotopic lung tumor model, IVIS; format: in vivo, nude mice; conditions: BO-1978 40 mg/kg, gefitinib 10 mg/kg, daily for 5 consecutive days
PC9 xenograft = PC9 xenograft in nude mice; format: in vivo; conditions: i.v., BO-1978 40 mg/kg, gefitinib 10 mg/kg, daily for 5 consecutive days
H1650 xenograft = H1650 xenograft in nude mice; format: in vivo; conditions: i.v., BO-1978 40 mg/kg, gefitinib 10 mg/kg, daily for 5 consecutive days
H1975 xenograft = H1975 xenograft in nude mice; format: in vivo; conditions: i.v., BO-1978 40 mg/kg, gefitinib 10 mg/kg, daily for 5 consecutive days
PC9/gef B4 xenograft = PC9/gef B4 xenograft in nude mice; format: in vivo; conditions: i.v., BO-1978 40 mg/kg, gefitinib 10 mg/kg, daily for 5 consecutive days
CCRF/VBL = test: cytotoxicity in multiple drug-resistant and cisplatin-resistant cells; format: cell-based
KB = test: as above; format: cell-based; conditions: Homo sapiens
CCRF-CEM = test: as above; format: cell-based; conditions: Homo sapiens
KB/vin10 = test: as above; format: cell-based

IC50 (H1650 cells): 32.5 ± 17.6 µM
IC50 (PC9 cells): 19.3 ± 6.28 µM
IC50 (H1975 cells): 14.1 ± 2.9 µM
IC50 (H1299 cells): 15.6 ± 7.45 µM
IC50 (PC9/gef B4 cells; Homo sapiens, 72 h): 36.7 ± 20.5 µM
IC50 (CL141T cells): 23.3 ± 3.34 µM
IC50 (A549 cells): 22.4 ± 14.4 µM
IC50 (H460 cells): 7.31 ± 2.56 µM
IC50 (CL97 cells): 24.4 ± 17.4 µM
IC50 (CL100 cells): 4.3 ± 3.87 µM
SMILES: COc1cc([C@@H]2c3cc4c(cc3[C@@H](O[C@@H]3O[C@@H]5CO[C@@H](C)O[C@H]5[C@H](O)[C@H]3O)[C@H]3COC(=O)[C@H]23)OCO4)cc(OC)c1O [Etoposide]
resistance factor of PC9/gef B4 to PC9 cells (PC9/gef B4 cells; IC50 ratio, number in brackets): 1.90
IC50 (CL1-5 cells): 12.6 ± 3.93 µM

SMILES: COc1cc2ncnc(Nc3ccc(F)c(Cl)c3)c2cc1OCCCN1CCOCC1 [Gefitinib, reference compound]
orthotopic growth of H1650-Luc cells (H1650-Luc cells): resistant to gefitinib treatment alone
suppression of xenograft tumor growth (PC9 xenograft): approximately 36%
suppression of xenograft tumor growth (H1650 xenograft): ~51%
suppression of xenograft tumor growth (H1975 xenograft): ~1%
suppression of xenograft tumor growth (PC9/gef B4 xenograft): ~49%

IC50 (H1650 cells): 17.1 ± 4.2 µM
IC50 (PC9 cells): 11.2 ± 1.97 µM
IC50 (H1975 cells): 36.8 ± 14.4 µM
IC50 (H1299 cells): 24.5 ± 1.85 µM
IC50 (A549 cells): 9.29 ± 3.31 µM
IC50 (H460 cells): 4.18 ± 1.29 µM
SMILES: CCc1c2c(nc3ccc(OC(=O)N4CCC(N5CCCCC5)CC4)cc13)-c1cc3c(c(=O)n1C2)COC(=O)[C@]3(O)CC [Irinotecan]

SMILES: CC[C@]1(O)C[C@H]2CN(CCc3c([nH]c4ccccc34)[C@@](C(=O)OC)(c3cc4c(cc3OC)N(C=O)[C@H]3[C@@](O)(C(=O)OC)[C@H](OC(C)=O)[C@]5(CC)C=CCN6CC[C@]43[C@@H]65)C2)C1 [Vincristine, reference compound]
IC50 (CCRF/VBL): 2.13 ± 0.249 µM
resistance factor (CCRF/VBL; CCRF/VBL vs CCRF-CEM): 954.3 x
IC50 (KB): 0.00216 ± 0.00025 µM
IC50 (CCRF-CEM): 0.00223 ± 0.00019 µM
IC50 (KB/vin10; Homo sapiens, KB-VIN10): 0.51 ± 0.17 µM
resistance factor (KB/vin10; KB/vin10 vs KB): 236.1 x
